In PMC9775322, “An Integrated Analysis of Mechanistic Insights into Biomolecular Interactions and Molecular Dynamics of Bio-Inspired Cu(II) and Zn(II) Complexes towards DNA/BSA/SARS-CoV-2 3CL^pro by Molecular Docking-Based Virtual Screening and FRET Detection” (Biomolecules, 2022):

Experiments:
[1] = Superoxide scavenging assay; format: biochemical; details: 590 nm
[2] = test system: NHDF Normal human dermal fibroblasts cell line; assay: MTT cell viability assay; format: cell-based; details: 72 h exposure
[3] = test system: MCF-7 Breast cancer cell line; assay: MTT cell viability assay; format: cell-based; details: 72 h exposure, at least three independent experiments
CT-DNA = assay: DNA thermal denaturation (biothermodynamic properties); format: binding, calf; details: for ΔS°: (ΔH°−ΔG°)/Tm; for ΔH°: Van't Hoff equation; for Tm °C of DNA-compound adduct / Tm (K) of DNA-compound adduct: compound 50 μM : CT-DNA 50 μM (1:1), 260 nm; for Tm °C of DNA-compound adduct: CT DNA alone 68 °C; for Tm (K) of DNA-compound adduct: CT DNA alone 341 K; for ΔTm °C: melting temperature change vs DNA alone; for ΔG°: −R·Tm·ln Km
Procedure: The biothermodynamic properties were obtained from absorption titration by a UV–visible spectrophotometer, accomplished with a temperature-controlled sample container in both the presence and absence of the substances. In a 5 mM Tris-HCl/50 mM NaCl buffer solution with a pH of 7.4, each test substance (50 μM) was incubated with CT-DNA (50 μM) in a 1:1 ratio. The test materials were all warmed at a rate of five degrees Celsius per minute to temperatures between 25 and 100 °C, and the changes in absorbance at 260 nm were carefully monitored. […]
ɛa is represented as the apparent absorption coefficient value for the MLCT band at a specific concentration of deoxyribonucleic acid and evaluated from Abs/[complex]. ɛ f and ɛb are the absorption coefficients for the chemical substance alone and completely interacted with deoxyribonucleic acid, respectively. ∆Amax = (Amax–A0); ∆A=(Ax–A0), where A0, Ax and Amax are denoted as the optical density of chemical substances alone, the middle form, and the completely interacted form with deoxyribonucleic acid, respectively.
2.2.3. Evaluation of biothermodynamic properties
The thermal denaturation study of CT-DNA is an efficient tool for examining the stability of test compounds bound to double-stranded DNA. […]
double to single stranded DNA. The biothermodynamic parameters also involve powerful proof for binding between test compounds and DNA. The denaturation of the biomolecules depends on T m, pH and non-physiological concentrations of salt, organic solvents and other chemical agents, etc. The DNA double helix breaks into two single strands as the temperature or pH rises, which is ascribed to the breaking of hydrophobic stacking attractions and the dissolution of H-bonds between the DNA base pairs as a result of the hydroxide ions' […]
withdrawing of the hydrogen ions (H +) from DNA base pairs. It causes a hyperchromic shift […]
inversely proportional to viscosity. Low salt concentration, conversely, can also denature DNA double-strands by eliminating the ions that stabilize the negative charges on the two strands from each other. By using UV-Vis analysis in a temperature-controlled sample holder, DNA thermal denaturation was carried out both in the absence and presence of the test compounds. In 5mM Tris-HCl /50 mM NaCl buffer (pH = 7.4) solution, each test substance (50 μM) was incubated in a 1:1 ratio with CT- DNA (50 μM). All samples were heated in the range of 25 to 100 °C at a rate of 5 °C per minute and the absorbance changes at 260 nm were constantly monitored. T m of DNA alone was evaluated as the midpoint of the sigmoid’ curves plotted absorbance vs temperature profiles. The Tm is depends on the double-stranded DNA stability. Due to substantial intercalation in DNA-complex adducts, the […]
temperature. When increasing temperature, double-stranded DNA converts into two single strands at the melting point, which leads to hyperchromic effect due to reducing the base-base interaction. As compared to DNA alone at the same high temperature, the incubated DNA solution with test compounds leads to hyporchromic effect accompanied with red shift.
Strong interactions between complexes and DNA, which restrict the separation of the double helix, cause the stabilization, and as a result, T m rises. In accordance with the T m, 50% of DNA is in its native double-stranded state, and the remaining 50% is in its denaturalized single-stranded state.
ΔG° = – R.Tm. lnKm = ΔH°– Tm ΔS° (S10)
Where K1 is represented as the binding constant value at 298 K (T r), the binding constant K 2 (Km), which indicates the temperature at which substances melt their DNA (T m K), This […]
technique offers crucial data on binding constants and associated ΔG °, ΔS° and ΔH° findings for compound-deoxyribonucleic acid systems. […]
not deliver definite confirmation for the exact mode of interactions. The experiment

[4] = Nitric oxide scavenging assay; format: biochemical; details: 546 nm
[5] = Hydroxyl radical scavenging assay; format: biochemical; details: 230 nm
[6] = test system: HepG2 Liver cancer cell line; assay: MTT cell viability assay; format: cell-based; details: 72 h exposure, at least three independent experiments
[7] = test system: A549 Human lung cancer cell line; assay: MTT cell viability assay; format: cell-based; details: 72 h exposure, at least three independent experiments

SMILES: [Cu+2].[O-]c1ccccc1N=Cc1ccc(N2CCOCC2)cc1.[O-]c1ccccc1N=Cc1ccc(N2CCOCC2)cc1.c1cnc2c(c1)ccc1cccnc12 [(1b), [Cu^II(L)2(phen)]]
- % Inhibition, superoxide ([1]; 40 µM): 08.45%
- % Inhibition, superoxide ([1]; 80 µM): 16.53%
- % Inhibition, superoxide ([1]; 120 µM): 32.18%
- % Inhibition, superoxide ([1]; 160 µM): 48.09%
- % Inhibition, superoxide ([1]; 200 µM): 60.93%
- % Inhibition, superoxide ([1]; 240 µM): 68.21%
- IC50 [1]: 200 µM
- IC50 [2]: 72.6 ± 2.9 µM
- IC50 [3]: 31.7 ± 1.3 µM
- Binding Constant Kr (or) K1 @ 298 K (CT-DNA): 20610 M⁻¹
- ΔS° (CT-DNA): −7.6237 cal mol^−1 K^−1
- ΔH° (CT-DNA): -8.1538 kcal/mol
- Tm °C of DNA-compound adduct (CT-DNA): 80.5 °C
- Tm (K) of DNA-compound adduct (CT-DNA): 353.5 K
- ΔTm °C (CT-DNA): 12.5 °C
- ΔG° (CT-DNA): -5.4588 kcal/mol
- % Inhibition, nitric oxide ([4]; 40 µM): 18.03%
- % Inhibition, nitric oxide ([4]; 80 µM): 25.43%
- % Inhibition, nitric oxide ([4]; 120 µM): 35.67%
- % Inhibition, nitric oxide ([4]; 160 µM): 42.86%
- % Inhibition, nitric oxide ([4]; 200 µM): 52.29%
- % Inhibition, nitric oxide ([4]; 240 µM): 66.21%
- % Inhibition, hydroxyl radical ([5]; 40 µM): 09.94%
- % Inhibition, hydroxyl radical ([5]; 80 µM): 18.86%
- % Inhibition, hydroxyl radical ([5]; 120 µM): 32.85%
- % Inhibition, hydroxyl radical ([5]; 160 µM): 39.84%
- % Inhibition, hydroxyl radical ([5]; 200 µM): 51.93%
- % Inhibition, hydroxyl radical ([5]; 240 µM): 62.05%
- IC50 ([5]; read-out: IC50, hydroxyl radical inhibition): 200 µM
- IC50 [6]: 30.9 ± 1.2 µM
- IC50 [7]: 29.7 ± 1.2 µM

SMILES: [O-]c1ccccc1N=Cc1ccc(N2CCOCC2)cc1.[O-]c1ccccc1N=Cc1ccc(N2CCOCC2)cc1.[Zn+2].c1cnc2c(c1)ccc1cccnc12 [(2b), [Zn^II(L)2(phen)]]
- % Inhibition, superoxide ([1]; 40 µM): 06.70%
- % Inhibition, superoxide ([1]; 80 µM): 12.58%
- % Inhibition, superoxide ([1]; 120 µM): 24.23%
- % Inhibition, superoxide ([1]; 160 µM): 40.35%
- % Inhibition, superoxide ([1]; 200 µM): 52.23%
- % Inhibition, superoxide ([1]; 240 µM): 60.02%
- IC50 [2]: 74.5 ± 3 µM
- IC50 [3]: 32.5 ± 1.3 µM
- Binding Constant Kr (or) K1 @ 298 K (CT-DNA): 19930 M⁻¹
- ΔS° (CT-DNA): −9.1806 cal mol^−1 K^−1
- ΔH° (CT-DNA): -8.5979 kcal/mol
- Tm °C of DNA-compound adduct (CT-DNA): 78.5 °C
- Tm (K) of DNA-compound adduct (CT-DNA): 351.5 K
- ΔTm °C (CT-DNA): 10.5 °C
- ΔG° (CT-DNA): -5.3709 kcal/mol
- % Inhibition, nitric oxide ([4]; 40 µM): 14.67%
- % Inhibition, nitric oxide ([4]; 80 µM): 22.43%
- % Inhibition, nitric oxide ([4]; 120 µM): 29.42%
- % Inhibition, nitric oxide ([4]; 160 µM): 38.82%
- % Inhibition, nitric oxide ([4]; 200 µM): 45.53%
- % Inhibition, nitric oxide ([4]; 240 µM): 59.88%
- % Inhibition, hydroxyl radical ([5]; 40 µM): 08.33%
- % Inhibition, hydroxyl radical ([5]; 80 µM): 17.12%
- % Inhibition, hydroxyl radical ([5]; 120 µM): 27.05%
- % Inhibition, hydroxyl radical ([5]; 160 µM): 36.68%
- % Inhibition, hydroxyl radical ([5]; 200 µM): 47.03%
- % Inhibition, hydroxyl radical ([5]; 240 µM): 57.83%
- IC50 [6]: 33.4 ± 1.4 µM
- IC50 [7]: 32.1 ± 1.3 µM

SMILES: Oc1ccccc1N=Cc1ccc(N2CCOCC2)cc1 [(HL), 2-(4-morpholinobenzylideneamino)phenol]
- % Inhibition, superoxide ([1]; 40 µM): 05.23%
- % Inhibition, superoxide ([1]; 80 µM): 10.74%
- % Inhibition, superoxide ([1]; 120 µM): 18.85%
- % Inhibition, superoxide ([1]; 160 µM): 33.55%
- % Inhibition, superoxide ([1]; 200 µM): 40.91%
- % Inhibition, superoxide ([1]; 240 µM): 50.42%
- Binding Constant Kr (or) K1 @ 298 K (CT-DNA): 15169 M⁻¹
- ΔS° (CT-DNA): −13.7851 cal mol^−1 K^−1
- ΔH° (CT-DNA): -9.8083 kcal/mol
- Tm °C of DNA-compound adduct (CT-DNA): 74 °C
- Tm (K) of DNA-compound adduct (CT-DNA): 347.0 K
- ΔTm °C (CT-DNA): 6 °C
- ΔG° (CT-DNA): -5.0249 kcal/mol
- % Inhibition, nitric oxide ([4]; 40 µM): 11.42%
- % Inhibition, nitric oxide ([4]; 80 µM): 18.26%
- % Inhibition, nitric oxide ([4]; 120 µM): 24.28%
- % Inhibition, nitric oxide ([4]; 160 µM): 33.21%
- % Inhibition, nitric oxide ([4]; 200 µM): 40.53%
- % Inhibition, nitric oxide ([4]; 240 µM): 51.62%
- % Inhibition, hydroxyl radical ([5]; 40 µM): 07.26%
- % Inhibition, hydroxyl radical ([5]; 80 µM): 14.43%
- % Inhibition, hydroxyl radical ([5]; 120 µM): 25.52%
- % Inhibition, hydroxyl radical ([5]; 160 µM): 33.86%
- % Inhibition, hydroxyl radical ([5]; 200 µM): 40.73%
- % Inhibition, hydroxyl radical ([5]; 240 µM): 50.68%
